“And” between values parts separate entries of the source, which are not always exact repeats. Equal entries are not always repeated. “Also recorded” adds a separate entry of the source. Where two headings read alike, the source gives them in different places.
How the values were obtained:
[1] = tested on: GPVI dimerization on platelets; assay: Effect of agonists and inhibitors on 9E18 binding to platelets (GPVI dimerization), flow cytometry; type: cell-based, human; details: for effect on 9E18 binding / GPVI dimerization of activated platelets / effect on 9E18 binding to resting as well as activated platelets: ADP-; for effect on 9E18 binding / GPVI dimerization of activated platelets: TRAP- or PMA-activated platelets; for effect on 9E18 binding to resting as well as activated platelets: TRAP- or PMA-activated washed platelets
[2] = tested on: ADP-induced GPVI dimerization; assay: ADP-induced 9E18 binding to platelets (PRP) of patients treated with P2Y12 antagonists, ex vivo; type: in vivo, human
Source text: FIG. 3: 9E18 as a marker of platelet activation and reactivity: Blood samples were obtained from (A) a cohort of patients with coronary artery disease admitted for percutaneous coronary intervention (n=45) and (B) healthy volunteers (n=40). For each subject, GPVI dimerization, represented by the extent of 9E18 positive platelets, is plotted against P-selectin exposure. Blood samples were obtained from (C) patients treated by prasugel and (D) healthy volunteers. For each subject the binding of FITC-coupled 9E18 to platelets was measured by flow cytometry after incubation of the PRP with buffer or ADP (10 μM) for 20 min.
FIG. 4: 9E18 as a marker of platelet activation and reactivity A: 9E18 binding to platelets and P-selectin exposure were measured in blood samples (PRP) obtained from a cohort of patients with CAD admitted for percutaneous coronary intervention (n=45). B: ADP-induced binding of 9E18 to platelets was measured on blood samples (PRP) from normal subjects and patients with CAD treated by clopidogrel (n=26). Results are expressed as the ratio between the levels of 9E18 binding to ADP-stimulated/non-stimulated samples×100.C: ADP-induced binding to platelets of patients treated by clopidogrel was plotted against corresponding data of the VASP phosphorylation assay.
Blood samples were obtained from a cohort of patients with coronary artery disease (CAD) referred to the department of cardiology of Bichat hospital for percutaneous coronary intervention (BIOCORE-2 study, Clinical Trial Registration—URL: http://clinicaltrials.gov/ct2/show/NCT01186666?term=NCT01186666&rank=1). The study complies with the Declaration of Helsinky and was approved by the institutional ethics committee. All of the patients provided written informed consent. Blood was drawn on 0.109M citrate the day after percutaneous coronary intervention (PCI). PRP, a waste of the established protocol, was used for this study. Analysis was performed less than one hour after blood sampling, on PRP using FITC-coupled 9E18, 3J24 or anti-P-selectin. […]

[3] = tested on: P-selectin exposure on platelets; assay: P-selectin exposure on platelets, flow cytometry; type: cell-based, human; details: washed platelets
FcRγ = FcRγ phosphorylation in activated platelets; type: cell-based, human; details: conditions leading to GPVI dimerization
[4] = molecular target: T1, GPVI dimers on shear-activated platelets (Homo sapiens, UniProt Q9HCN6); assay: Shear-induced platelet activation, 9E18 binding; type: cell-based; details: washed platelets
T1 construct: Blood was obtained from healthy volunteers; endogenous in cells; host or cells: human platelets (whole blood, PRP, washed platelets or lysates) from healthy volunteers or coronary artery disease patients
T1 sequence (Q9HCN6 21-339): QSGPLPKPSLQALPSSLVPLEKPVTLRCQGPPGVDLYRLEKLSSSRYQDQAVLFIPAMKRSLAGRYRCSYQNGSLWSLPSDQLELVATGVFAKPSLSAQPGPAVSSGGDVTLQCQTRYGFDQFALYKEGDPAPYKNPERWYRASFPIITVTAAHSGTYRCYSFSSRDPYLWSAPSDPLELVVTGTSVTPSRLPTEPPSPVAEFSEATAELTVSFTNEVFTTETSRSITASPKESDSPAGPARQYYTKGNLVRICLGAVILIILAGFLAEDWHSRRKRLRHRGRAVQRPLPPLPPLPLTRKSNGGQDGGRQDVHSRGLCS
T1 sequence (P30273 19-86 partner): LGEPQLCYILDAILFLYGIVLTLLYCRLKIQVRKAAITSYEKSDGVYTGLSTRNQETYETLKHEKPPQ

[5] = tested on: platelet adhesion to immobilized collagen; assay: GPVI-dependent platelet adhesion to immobilized collagen (static); type: cell-based, human; details: PMA-treated platelets
collagen = assay: Binding of recombinant soluble GPVI to collagen (purified proteins, microtitration wells); set-up: species or system equine; details: Example 1
[6] = molecular target: T2, 9E18 binding to immobilized GPVI-Fc (Homo sapiens, UniProt Q9HCN6); assay: Competition: binding of 9E18 to immobilized GPVI-Fc in presence of soluble GPVI
T2 construct: Recombinant soluble GPVI was obtained as the extracellular domain of human GPVI; made in house; host or cells: HEK cells
T2 sequence (Q9HCN6 21-267 limits assumed): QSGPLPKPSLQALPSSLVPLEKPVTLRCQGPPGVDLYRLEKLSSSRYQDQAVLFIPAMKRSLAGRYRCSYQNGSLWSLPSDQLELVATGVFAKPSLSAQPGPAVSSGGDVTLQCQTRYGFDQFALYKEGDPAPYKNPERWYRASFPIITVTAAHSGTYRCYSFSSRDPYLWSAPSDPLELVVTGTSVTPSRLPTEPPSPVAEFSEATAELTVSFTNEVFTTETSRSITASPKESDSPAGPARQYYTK

[7] = molecular target: T3, 9E18 binding to stimulated platelets (Homo sapiens, UniProt Q9HCN6); assay: Inhibition of 9E18 binding to stimulated platelets by soluble GPVI or IV.3; type: cell-based
T3 construct: Blood was obtained from healthy volunteers; endogenous in cells; host or cells: human platelets (whole blood, PRP, washed platelets or lysates) from healthy volunteers or coronary artery disease patients
T3 sequence (Q9HCN6 21-339): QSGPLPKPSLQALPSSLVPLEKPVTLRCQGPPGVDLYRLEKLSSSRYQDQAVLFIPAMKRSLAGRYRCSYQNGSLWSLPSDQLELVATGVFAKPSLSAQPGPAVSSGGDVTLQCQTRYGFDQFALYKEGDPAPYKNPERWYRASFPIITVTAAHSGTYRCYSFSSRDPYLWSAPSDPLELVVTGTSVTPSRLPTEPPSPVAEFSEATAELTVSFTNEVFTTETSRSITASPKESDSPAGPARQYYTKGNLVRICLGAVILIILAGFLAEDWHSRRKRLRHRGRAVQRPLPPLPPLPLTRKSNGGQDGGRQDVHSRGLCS
T3 sequence (P30273 19-86 partner): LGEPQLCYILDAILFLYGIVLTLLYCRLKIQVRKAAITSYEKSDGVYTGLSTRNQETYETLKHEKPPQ
Procedure: Resting and activated platelets (5×10^7 mL^−1 in whole blood or PRP or buffer) were incubated with FITC-coupled anti-GPVI or P-selectin antibodies for 20 min and, when needed fixed with 1% PFA. Samples were analyzed by flow cytometry using Epics XL.MCL (Coulter) or LSRII (Becton Dickinson Biosciences) apparatus. Platelet glycoprotein quantification was performed using the quantification kit, Platelet GP screen (Byocytex, Marseille, France).

## CNC[C@H](O)c1ccc(O)c(O)c1 [Epinephrine]
[1]
  factor of increase of 9E18 binding to platelets: 1.5

## CC(=O)Oc1cc2c(s1)CCN(C(C(=O)C1CC1)c1ccccc1F)C2 (stereo not shown) [prasugrel]
[2]; PRP, ADP 10 μM, good responders by VASP test
  ADP-induced increase of 9E18 binding to platelets of treated patients: not to platelets of 9 patients treated by prasugrel; also recorded: blocked
[2]; one treated patient (low response)
  9E18 binding and VASP phosphorylation in response to ADP: remained increased

## Nc1ncnc2c1ncn2[C@@H]1O[C@H](COP(=O)(O)OP(=O)(O)O)[C@@H](O)[C@H]1O [ADP, adenosine diphosphate]
[3]
  surface exposure of P-selectin induced by agonist: induced surface exposure of P-selectin
FcRγ
  FcRγ phosphorylation in activated platelets: not phosphorylated
[1]
  effect of agonist on binding of 9E18 to platelets: increased

## COc1ccc2c(c1)c(CC(=O)O)c(C)n2C(=O)c1ccc(Cl)cc1 [indomethacine, Indomethacin]
[1]; ADP or TRAP
  effect on 9E18 binding to ADP- or TRAP-stimulated platelets: no effect

## vWF: von Willebrand factor added to washed platelets
[4]
  effect of addition on shear-induced platelet aggregation and level of 9E18 binding: parallel increase

## CCCCCCCCCCCCCC(=O)O[C@@H]1[C@@H](C)[C@@]2(O)[C@@H](C=C(CO)C[C@]3(O)C(=O)C(C)=C[C@@H]23)[C@@H]2C(C)(C)[C@]12OC(C)=O [PMA]
FcRγ
  FcRγ phosphorylation in activated platelets: not phosphorylated
[1]
  effect of agonist on binding of 9E18 to platelets: significantly increased
[1]; PMA alone
  level of 9E18 binding to PMA-treated platelets: 31.5±4% and 27.7%
[5]
  effect on GPVI-dependent platelet adhesion to immobilized collagen: increase

## apyrase
[1]; ADP
  effect on ADP-induced 9E18 binding to platelets: fully prevented
  inhibition of ADP-induced binding of 9E18: 85%
[1]
  reduction of TRAP-induced binding of 9E18: 75%
[1]; listed as Apyrase
  reduction of TRAP-induced binding of 9E18: 50%

## CC(=O)N[C@@H](C(=O)O)C(C)(C)SN=O (racemic) [SNAP]
[1]
  effect on 9E18 binding / GPVI dimerization of activated platelets: same effect; also recorded: inhibited
  effect on 9E18 binding to resting as well as activated platelets: inhibited

## CCCCC[C@H](O)/C=C/[C@H]1[C@H](O)CC(=O)[C@@H]1CCCCCCC(=O)O [PGE1, prostaglandin E1]
[1]; ADP or TRAP
  effect on 9E18 binding to ADP- or TRAP-stimulated platelets: dropped to basal level
[1]
  effect on 9E18 binding / GPVI dimerization of activated platelets: drastically reduced; also recorded: inhibited
  effect on 9E18 binding to resting as well as activated platelets: reduced
[1]; PMA
  effect on PMA-induced 9E18 binding to platelets: greatly decreased
[1]; preincubation, no agonist
  effect on 9E18 binding in the absence of agonist: lowered

## CSc1nc(N)c2ncn([C@@H]3O[C@H](COP(=O)(O)O)[C@@H](O)[C@H]3O)c2n1 [2MeSAMP]
[1]
  effect on 9E18 binding to ADP- or TRAP-stimulated platelets: inhibited; also recorded: prevented
  effect on ADP-induced 9E18 binding to platelets: blocked

## COC(=O)[C@H](c1ccccc1Cl)N1CCc2sccc2C1 [clopidogrel, (+)-(S)-methyl 2-(2-chlorophenyl)-2-(6,7-dihydrothieno[3,2-c]pyridin-5(4H)-yl)acetate]
[2]; 75 mg, PRP
  ADP-induced 9E18 binding response in treated patients vs normal subjects: highly significant reduction

## Cc1ccc(-c2nn(C(C)(C)C)c3ncnc(N)c23)cc1 [PP1]
[1]; 20 μM inhibitor, PMA-treated platelets
  level of PMA-induced 9E18 binding in presence of inhibitor: 28.4%

B1: GPVI-His: extracellular domain of human GPVI fused to a poly-His Tag, monomeric (protein, UniProt Q9HCN6 21-267, looked up)
extracellular domain: QSGPLPKPSLQALPSSLVPLEKPVTLRCQGPPGVDLYRLEKLSSSRYQDQAVLFIPAMKRSLAGRYRCSYQNGSLWSLPSDQLELVATGVFAKPSLSAQPGPAVSSGGDVTLQCQTRYGFDQFALYKEGDPAPYKNPERWYRASFPIITVTAAHSGTYRCYSFSSRDPYLWSAPSDPLELVVTGTSVTPSRLPTEPPSPVAEFSEATAELTVSFTNEVFTTETSRSITASPKESDSPAGPARQYYTK
modifications: extracellular domain poly-His tag
notes: extracellular domain of human GPVI fused to a poly-His Tag, monomeric
collagen
  affinity for collagen: 14.7 ± 3.27 µg/mL
[6]
  IC50, inhibition of 9E18 binding to immobilized GPVI-Fc by soluble GPVI: 3.7 ± 2.2 µg/mL
[6]; GPVI-His up to 10 μg·mL^−1
  inhibition of 9E18 binding to GPVI-Fc: 70%
[6]; molar value in brackets, Example 1, read-out: IC50, inhibition of 9E18 binding to immobilized GPVI-Fc by soluble GPVI
  IC50: 74 nM
[6]; value in brackets after IC50, Example 2, read-out: Kd from competition of 9E18 binding to GPVI-Fc
  Kd: 78 nM
[7]
  inhibition of 9E18 binding to stimulated platelets: not
[7]; listed as monomers
  inhibition of 9E18 binding to stimulated platelets: not by monomers
